According to US20210275518A1, “METHODS OF USING REBASTINIB IN THE TREATMENT OF DISORDERS” (Deciphera Pharmaceuticals, LLC, priority 2020, published 2021):

What was measured:
[1] = tested on: endometrial adenocarcinoma; test: Phase 1b/2 rebastinib + paclitaxel, Part 2 Cohort 4 (RECIST v1.1); assay type: in vivo, human
Text: (§1) Upon determination of the RP2D, Part 2 is initiated to dose up to 165 evaluable patients using the RP2D across five indication-specific cohorts. A Simon's two-stage design is applied to Part 2 to further evaluate the safety, tolerability, and preliminary efficacy of rebastinib in combination with paclitaxel in triple-negative breast (Cohort 1), inflammatory breast (Cohort 2), ovarian (Cohort 3), endometrial adenocarcinoma (Cohort 4), and gynecologic carcinosarcoma (Cohort 5) cancers. Each cohort initially enrolls up to 18 evaluable patients in the first stage. Patients must receive at least 1 dose of the combination and have 1 post-baseline assessment (including assessment of clinical progression) or be discontinued prior to the postbaseline disease assessment due to an AE at least possibly related to rebastinib, to be considered evaluable. Tumor response is assessed according to Response Evaluation Criteria in Solid Tumors (RECIST) Version 1.1. The decision to enroll patients beyond the first stage is based on response assessments obtained after the first post-dose response assessment of the last patient enrolled in the first stage of a cohort. […] If ≤4 responses are seen in a cohort, the cohort will be terminated. If >4 responses are seen prior to the last evaluable patient in the first stage, expanding the cohort may be triggered earlier. Enrollment in each cohort will pause between the first and second stage of the Simon two-stage for evaluation of response. Patients will receive study treatment until they develop progressive disease, experience unacceptable toxicity, or withdraw consent.
21 patients were enrolled and completed at least Cycle 1, Day 1 (C1D1); 18 of which had post baseline measurements. 16 of the patients treated with rebastinib were at a starting dose of 100 mg BID and 80 mg/m^2 weekly paclitaxel, of which the doses of 11 were reduced to 50 mg BID and 80 mg/m^2 weekly paclitaxel, and 5 patients were at a starting dose of 50 mg BID and 80 mg/m^2 weekly paclitaxel. Of the 21 patients who completed at least Cycle 1, Day 1, the median age was 66 years, all received at least 1 prior line of paclitaxel/carboplatin, and 20 (95%) received at least 2 prior anti-cancer therapies. Of the 21 patients who completed at least Cycle 1, Day 1, the median duration of treatment was 16 weeks. Of the 21 patients, 18 were determined to be efficacy evaluable patients (mITT).
At a third time point, 38 patients with endometrial cancer were enrolled in this portion of the study as a safety population. 16 of the patients treated with rebastinib were at a starting dose of 100 mg BID and 80 mg/m^2 weekly paclitaxel, of which the doses of 11 were reduced to 50 mg BID and 80 mg/m^2 weekly paclitaxel, and 22 patients were at a starting dose of 50 mg BID and 80 mg/m^2 weekly paclitaxel. 33 of the 38 patients met the met the modified intention-to-treat (mITT) criteria.

[2] = tested on: breast cancer, ovarian cancer, and mesothelioma; test: Phase 1b/2 study of rebastinib in combination with carboplatin; assay type: in vivo, human
Protocol: This is a Phase 1b/2 study where patients with mesothelioma are administered rebastinib in combination with carboplatin. The study follows a Simon 2-stage design at the MTD and R2PD. Safety and tolerability, PK and PD, and preliminary efficacy data was used to determine the RP2D. Upon determination of the RP2D or MTD, the Simon 2-stage design is initiated to dose evaluable patients using the RP2D or MTD across three indication-specific cohorts (breast cancer, ovarian cancer, and mesothelioma).
as §1, with “Each” for “Upon determination of the RP2D, Part 2 is initiated to dose up to 165 evaluable patients using the RP2D across five indication-specific cohorts. A Simon's two-stage design is applied to Part 2 to further evaluate the safety, tolerability, and preliminary efficacy of rebastinib in combination with paclitaxel in triple-negative breast (Cohort 1), inflammatory breast (Cohort 2), ovarian (Cohort 3), endometrial adenocarcinoma (Cohort 4), and gynecologic carcinosarcoma (Cohort 5) cancers. Each”, “progression),” for “progression)”
At a second time point, 22 patients were enrolled in the study (3 cohorts: 3 patients at rebastinib 50 mg BID+carboplatin AUC5, 14 patients at rebastinib 100 mg BID+carboplatin AUC5, and 5 pts at rebastinib 100 mg BID+carboplatin AUC6). The median age was 61 yrs. Most frequent diagnoses were breast cancer (n=5); neuroendocrine carcinoma (n=3); pancreatic adenocarcinoma, NSCLC, and cholangiocarcinoma (n=2 each). The median number of prior anti-cancer therapies was 4 (1, 12). Median duration of treatment was 8.4 weeks (0.9, 22.6).

[3] = tested on: Low Passage Champions TUMORGRAFT Models of Human Mesothelioma; test: Preclinical rebastinib/carboplatin combination efficacy in mesothelioma PDx models; assay type: in vivo, immunocompromised mice; conditions: Model 2; 25 mg/kg rebastinib intraperitoneal + 20 mg/kg carboplatin intravenous
Protocol: This study was conducted to obtain preclinical evidence of rebastinib/carboplatin combination efficacy in mesothelioma to support clinical development. The study was an in vivo evaluation of rebastinib single agent and in combination with carboplatin (SOC), in Low Passage Champions TUMORGRAFT® Models of Human Mesothelioma in immunocompromised mice.
Mesothelioma PDx models were studied each with 8 animals per group for total of 4 groups per model. The study endpoint was when the mean tumor volume of the control reaches 1500 mm^3 or 60 days max. Terminal tumors were be collected, fixed, and embedded.

[4] = Cohort 4, time point 1, of the eight with stable disease at Cycle 3, Day 1, Cycle 5, Day 1
[5] = Cohort 4, time point 1, rebastinib + paclitaxel, Cycle 3, Day 1
[6] = Cohort 4, time point 2, 18 evaluable patients (mITT)
[7] = Cohort 4, time point 3, of 3 patients who had received Lenvatinib/pembrolizumab
[8] = Cohort 4, time point 4, 33 evaluable patients
[9] = Table 2, Cohort 4, time point 3, mITT N = 33, patients (%)
[10] = Table 2, Cohort 4, time point 3, n 11
[11] = time point 1, rebastinib and carboplatin combination

With `CNC(=O)c1cc(Oc2ccc(NC(=O)Nc3cc(C(C)(C)C)nn3-c3ccc4ncccc4c3)c(F)c2)ccn1` [rebastinib] the “Patients with stable disease at Cycle 5, Day 1 and partial response at Cycle 8, Day 1” value ([1]; Cohort 4, time point 1, of the eight with stable disease at Cycle 3, Day 1) was “one”, the “Patients with partial response” value [1, 4] was “one” and the “Patients with stable disease” value [1, 4] was “four”. The “Patients with partial response” value ([1]; Cohort 4, time point 1, of the four with partial response at Cycle 3, Day 1, Cycle 5, Day 1) was “two”, the “Patients with partial response” value ([1]; Cohort 4, time point 1, of the four with partial response at Cycle 3, Day 1, both Cycle 5, Day 1 and Cycle 8, Day 1) was “two” and the “Patients with partial response” value [1, 5] was “four”. For the same molecule, the “Patients with stable disease” value [1, 5] was “Eight”, the “CBR at 8 weeks” value [1, 6] was 72% and the ORR [1, 6] was 39%. For the same molecule, the “Stable disease (SD) determinations” value [1, 6] was 6, the “Partial response (PR) determinations” value ([1]; Cohort 4, time point 2, 18 evaluable patients (mITT), rebastinib 100 or 50 mg BID with weekly paclitaxel 80 mg/m^2) was 7 and the “Clinical benefit rate at 16 weeks” value ([1]; Cohort 4, time point 3, 33 patients mITT) was 53%. The “Objective response rate (ORR)” value ([1]; Cohort 4, time point 3, 33 patients mITT, rebastinib 100 or 50 mg BID with weekly paclitaxel 80 mg/m^2) was 33%, the ORR across subgroups ([1]; Cohort 4, time point 3, FIG. 7, subgroups by age, number of prior regimens, number of prior paclitaxel regimens, histology) was “consistent” and the “Patients with partial response” value [1, 7] was 2. For the same molecule, the “Patients with stable disease” value [1, 7] was 1, the “Outcome of serious adverse events related (or possibly) to rebastinib” value ([1]; Cohort 4, time point 4) was “resolved after dose interruption” and the “Clinical benefit at 8 weeks” value [1, 8] was 70%. The “Clinical benefit at 16 weeks” value [1, 8] was 54%, the “Confirmed PRs” value [1, 8] was 8 and the PRs [1, 8] was 11. The ORR ([1]; Cohort 4, time point 4, 33 evaluable patients, rebastinib 100 or 50 mg BID with weekly paclitaxel 80 mg/m^2) was 33%, the “KM median duration of response” value ([1]; Cohort 4, time point 4, 90% CI: 2.7, NE, median follow up 4.4 months) was 7.4 months and the “Median PFS” value ([1]; Cohort 4, time point 4, 90% CI: 3.7, 9.4) was 6.2 months. For the same molecule, the “Best Overall Response: Confirmed Partial Response” value [1, 9] was 8 (24.2%), the “Best Overall Response: Not Evaluable: discontinued prior to radiological assessment” value [1, 9] was 5 (15.2%) and the “Best Overall Response: Partial Response” value [1, 9] was 11 (33.3%). The “Best Overall Response: Progressive Disease” value [1, 9] was 6 (18.2%), the “Best Overall Response: Single Response Awaiting Confirmation” value [1, 9] was 1 (3.0%) and the “Best Overall Response: Stable Disease” value [1, 9] was 11 (33.3%). The “Best Overall Response: Unconfirmed Single Response” value [1, 9] was 2 (6.1%), the “Duration of Response, Events (%)” value [1, 10] was 3 (27.3) and the “Time to Response, Mean (SD)” value [1, 10] was 3.3 (1.7). For the same molecule, the “Duration of Response, Kaplan-Meier Median (80% CI)” value ([1]; Table 2, Cohort 4, time point 3, n 11, NE: Not evaluated) was 7.4 (7.4, NE), the Tolerability ([2]; time point 1, rebastinib 50 mg and 100 mg BID in combination with carboplatin AUC5) was “tolerated” and the Tolerability ([2]; time point 1, rebastinib 100 mg BID in combination with carboplatin AUC6 (3 patients)) was “tolerated”. The Muscular weakness [2, 11] was “No muscular weakness”, the “Response in the dose escalation cohorts” value [2, 11] was “No response” and the “Partial response (PR)” value ([2]; time point 2, 22 patients enrolled, rebastinib 50 or 100 mg BID + carboplatin AUC5 or AUC6, preliminary) was 1. The “Muscular weakness in the dose expansion cohort” value ([2]; time point 2, rebastinib 100 mg BID with carboplatin AUC5, RP2D adjusted to 50 mg BID) was “increased frequency”, the “CBR at 6 weeks” value ([2]; time point 2, rebastinib + carboplatin, preliminary) was 52% and the Tumor inhibition [3] was 38%.
